One assay concerns the target T1, σ1 receptor (Cavia porcellus, UniProt Q60492).
T1 construct: The membranes were prepared from guinea pig brain (minus cerebellum) as described above; from tissue; host or cells: guinea pig brain (minus cerebellum) membranes
Kind of assay: Sigma-1 receptor competition binding assay with [3H]-(+)-pentazocine. On the set-up: species or system guinea pig. The following applies: apparent Ki (Cheng-Prusoff), brain membranes. On the procedure:
The in vitro σ1 receptor binding affinities of rhenium coordinated complexes were determined in a competition assay using […] and high-affinity σ1 ligand [3H]-(+)-pentazocine (28 Ci/mmol, NEN Life Science Inc., Cambridge, Mass.). See, Mol. Neuropharmacol. 1993, 3, 117-126.
The membranes were prepared from guinea pig brain (minus cerebellum) as described above and stored at −70 ° C. Twelve concentrations of the nonradioactive rhenium complexes ranging from 1×10^−11 to 1×10^−3 and protein samples (0.15 mg of membrane protein) were incubated with […] [3H]-(+)-pentazocine in a total volume of 0.25 mL of Tris-HCl (50 mM, pH 8.0). Incubations were carried out for 120 min at 25° C. All assays were terminated by dilution with 5 mL of ice-cold Tris-HCl (10 mM), pH 8.0, and solution were filtered through glass-fiber filters (Whatman GF/F; presoaked in 0.5% polyethyleneimine for 30 min at 25° C.). Filters were then washed three times with 5 mL of ice-cold Tris-HCl (50 mM, pH 8.0), and counted in Hionic-Fluor cocktail (Packard, Groningen, the Netherlands). The corresponding IC50 values were determined with Origin 6.0 software (OriginLab, Northampton, Mass.) and were used for the calculation of the apparent Ki values with the Cheng-Prusoff equation. See, Biochem. Pharmacol. 1973, 22, 3099-3108.

For the next assay, the target named is T2, σ2 receptor (Rattus norvegicus, UniProt Q5U3Y7).
T2 construct: Rat liver membranes were prepared from male Sprague-Dawley rat livers as previously described; from tissue; host or cells: male Sprague-Dawley rat liver membranes
T2 sequence (Q5U3Y7 1-176): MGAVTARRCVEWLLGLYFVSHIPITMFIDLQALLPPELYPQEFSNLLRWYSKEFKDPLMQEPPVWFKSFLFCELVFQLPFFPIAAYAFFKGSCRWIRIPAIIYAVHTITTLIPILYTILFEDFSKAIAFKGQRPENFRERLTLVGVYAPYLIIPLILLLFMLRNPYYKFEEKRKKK
Briefly: σ2 receptor competition binding assay with [3H]-DTG, σ1 masked. The following applies: apparent Ki, rat liver membranes. On the procedure:
Rat liver membranes were prepared from male Sprague-Dawley rat livers as previously described (Eur. J. Pharmacol.—Mol. Pharmacol. Sect. 1994, 268, 9-18). The in vitro σ2 receptor binding affinities of rhenium coordinated complexes were determined in a competition assay using rat livers and [^3H]-DTG (31 Ci/mmol, NEN Life Science Inc., Cambridge, Mass.) as radioligand in the presence of 10 μM 1-pyrrolidinylethyl 3,4-dichlorophenylacetate oxalate (ACT915 oxalate) to mask σ1 receptors (Bioorg. & Med. Chem. Lett. 2000, 10, 17-18). Competition assays were performed with twelve concentrations of the nonradioactive rhenium complexes ranging from 1×10^−10 to 1×10^−3 and protein samples (0.15 mg of membrane protein) in a total volume of 0.25 mL of Tris-HCl (50 mM, pH 8.0) for 120 min at 25° C. All other manipulations and data analysis were performed as described vide supra for the σ1-receptor assays.

Another assay concerns the target α1 receptor. Kind of assay: Alpha-1 receptor competition binding assay with [3H]-Prazosin. The following applies: apparent Ki, rat frontal cortex. How it is done: The in vitro α1 receptor binding affinities of rhenium coordinated complexes were determined in a competition assay using rat frontal cortex and high-affinity α1 ligand [^3H]-Prazosin (80 Ci/mmol, NEN Life Science Inc., Cambridge, Mass.). See, Eur. J. Nucl. Med. 2002, 29, 82-87.
(§1) The frontal cortex of rat brain was prepared as described above and store at −70° C. until used in the binding assays. Ten concentrations of the nonradioactive rhenium complexes ranging from 1×10^−10 to 1×10^−3 and protein samples (0.15 mg of membrane protein) were incubated with 1.5 nM [^3H]-Prazosin in a total volume of 0.25 mL of Tris-HCl (50 mM, pH 7.4, 10 mM MgSO4). Incubations were carried out for 60 min at 25° C. All assays were terminated by dilution with 5 mL of ice-cold Tris-HCl (10 mM), pH 7.4, and solution were filtered through glass-fiber filters (Whatman GF/F; presoaked in 0.5% polyethyleneimine for 30 min at 25° C.). Filters were then washed three times with 5 mL of ice-cold Tris-HCl (50 mM, pH 7.4), and counted in Hionic-Fluor cocktail (Packard, Groningen, the Netherlands). The corresponding IC50 values were determined with Origin 6.0 software (OriginLab, Northampton, Mass.) and were used for the calculation of the apparent Ki values with the Cheng-Prusoff equation. See, Biocheni. Pharmacol. 1973, 22, 3099-3108.

Another assay addresses T3, 5HT1A receptor (Rattus norvegicus, UniProt P19327).
T3 construct: The brains were rapidly removed, and hippocampus, frontal cortex, hypothalamus, and striatum were hand-dissected on ice; from tissue; host or cells: male Sprague-Dawley rat hippocampus membranes
T3 sequence (P19327 1-422): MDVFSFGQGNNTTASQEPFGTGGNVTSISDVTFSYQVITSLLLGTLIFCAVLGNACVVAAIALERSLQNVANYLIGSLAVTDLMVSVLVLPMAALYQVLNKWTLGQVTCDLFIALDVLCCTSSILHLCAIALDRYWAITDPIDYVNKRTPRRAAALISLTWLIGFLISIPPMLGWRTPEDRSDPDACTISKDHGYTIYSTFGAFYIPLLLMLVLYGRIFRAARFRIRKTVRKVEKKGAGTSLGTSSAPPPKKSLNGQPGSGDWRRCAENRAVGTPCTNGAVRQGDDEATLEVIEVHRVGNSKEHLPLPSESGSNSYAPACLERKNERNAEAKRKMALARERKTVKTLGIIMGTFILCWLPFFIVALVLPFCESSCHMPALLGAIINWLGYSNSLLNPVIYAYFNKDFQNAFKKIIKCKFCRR
Kind of assay: 5HT1A receptor competition binding assay with [3H]-8-OH-DPAT. The conditions noted are these: apparent Ki, rat hippocampus. On the procedure:
The in vitro 5HT1A binding affinities of rhenium coordinated complexes were determined in a competition assay using rat hippocampus and high-affinity 5HT1A-ligand [^3H]-8-OH-DPAT (135 Ci/mmol, NEN Life Science Inc., Cambridge, Mass.). See, Brain Res. 1995, 673, 217-225.
Male Sprague-Dawley rats (weighing 150-170 g) were sacrificed using anesthesia agent isoflurane. The brains were rapidly removed, and hippocampus, frontal cortex, hypothalamus, and striatum were hand-dissected on ice and stored at −70° C. Tissue was thawed at room temperature and homogenized using a Brinkmann Polytron tissue disrupter in 50 volumes (wt/vol) of ice-cold 50 mM Tris-HCl buffer (pH 7.4). The suspension was centrifuged twice at 27,000 g for 20 min at 4° C. The membrane pellets were resuspended in 50 volumes of (wt/vol) Tris-HCl buffer and incubated at 37° C. for 20 min in a water bath, before a final centrifugation step (27,000 g; 20 min; 4° C.). The final tissue pellets were stored at −70° C. until assayed.
as §1, with “Twelve” for “The frontal cortex of rat brain was prepared as described above and store at −70° C. until used in the binding assays. Ten”, “1×10^−11” for “1×10^−10”, “1×10^−4” for “1×10^−3”, “[^3H]-8-OH-DPAT” for “[^3H]-Prazosin”, “Biochem.” for “Biocheni.”

The record followed here is US20060159617A1, “Small technetium-99m and rhenium labeled agents and methods for imaging tissues, organs and tumors” (priority 2002, published 2006).

T1 sequence (Q60492 whole entry): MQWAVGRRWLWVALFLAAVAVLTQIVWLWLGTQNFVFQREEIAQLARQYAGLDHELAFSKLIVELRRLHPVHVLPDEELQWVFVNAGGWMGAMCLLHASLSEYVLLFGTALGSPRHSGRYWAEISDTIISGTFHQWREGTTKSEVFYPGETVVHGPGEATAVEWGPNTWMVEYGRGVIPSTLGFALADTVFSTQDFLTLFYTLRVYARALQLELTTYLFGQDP

With `O=C1CN(CCCN2CCC(c3ccccc3)CC2)CC[S][Re]2(=[O])[S]CC[N]12` (stereo not shown) [Re-21], the Ki is 553 nM at σ1 receptor, 84.6 ± 7.9 nM at σ2 receptor, 39 ± 4 nM on α1 receptor and 55.7 ± 8.3 nM on 5HT1A receptor.
